The subject of data set [1] is A549. Briefly: Antiproliferative activity against human A549 cells assessed as inhibition of cell growth incubated for 72 hrs by MTT assay. To be noted: A549, 72 h. It counts as functional, cell-based. For orientation: Tetrazolium assays rely on reduction of a dye to a coloured formazan, in cell work by metabolically active cells.
The test system of data set [2] is Raji. Nature of the data set: Antiproliferative activity against human Raji cells assessed as inhibition of cell growth incubated for 72 hrs by MTT assay. The class given is functional, cell-based.
In data set [3] the test system is K562. Briefly: Antiproliferative activity against human K562 cells assessed as inhibition of cell growth incubated for 72 hrs by MTT assay. To be noted: K562, 72 h. The class given is functional, cell-based.
The subject of data set [4] is HL-60. Briefly: Antiproliferative activity against human HL-60 cells assessed as inhibition of cell growth incubated for 72 hrs by MTT assay. It counts as functional, cell-based. To be noted: HL-60, 72 h.
The test system of data set [5] is Jurkat. Nature of the data set: Antiproliferative activity against human Jurkat cells assessed as inhibition of cell growth incubated for 72 hrs by MTT assay. The class given is functional, cell-based.
Data set [6] deals with MCF7. Nature of the data set: Antiproliferative activity against estrogen receptor positive human MCF7 cells assessed as inhibition of cell growth incubated for 72 hrs by MTT assay. It counts as functional, cell-based. To be noted: MCF7, 72 h.
Data set [7] deals with HeLa. Briefly: Antiproliferative activity against human HeLa cells assessed as inhibition of cell growth incubated for 72 hrs by MTT assay. It counts as functional, cell-based.
Data set [8] has as its system MDA-MB-231. Briefly: Antiproliferative activity against estrogen receptor negative human MDA-MB-231 cells assessed as inhibition of cell growth incubated for 72 hrs by MTT assay. The class given is functional, cell-based. As to conditions: MDA-MB-231, 72 h.
Data set [9] in a line: Cytotoxicity against human MRC5 cells assessed as inhibition of cell growth incubated for 72 hrs by MTT assay. It counts as toxicity, cell-based. As to conditions: human, MRC5 cells.
Data set [10] concerns A549. Nature of the data set: Potency index, ratio of cleistenolide IC50 to test compound IC50 for antiproliferative activity against human A549 cells assessed as inhibition of cell growth incubated for 72 hrs by MTT assay. It counts as functional.
For data set [11], the system named is A549. Briefly: Potency index, ratio of doxorubicin IC50 to test compound IC50 for antiproliferative activity against human A549 cells assessed as inhibition of cell growth incubated for 72 hrs by MTT assay. It counts as functional.

Molecules are shown by their SMILES.

Broadly, the IC50 is the concentration needed to halve the response being measured. As for `CC(=O)O[C@H](COC(=O)c1ccccc1)[C@H]1OC(=O)C=C[C@H]1OC(=O)/C=C/c1ccc([N+](=O)[O-])cc1`, the IC50 in data set [1] came to 2.55 µM; in data set [2], 25 µM; in data set [3], 5.82 µM; in data set [4], 24.5 µM; in data set [5], 23.5 µM; in data set [6] it was 21.3 µM. In addition, the IC50 was determined as 13.3 µM in [7] and 15.5 µM in [8]. Moreover, in data set [9], the IC50 at 72 h was over 100 µM. In addition, the entries for the “Ratio IC50” value in [10] and in data set [11] were over 6 and about 2, respectively.
